Results as given in patent publication US20250313533A1, “QUINOLINE CARBOXYLIC ACID ESTER COMPOUND AND PREPARATION METHOD AND USE THEREOF” (priority 2019, published 2025).
“And” between values parts separate entries of the source, which are not always exact repeats. Equal values may be shown once. Read-outs that look alike come from different tables or passages of the source.

What was measured:
[1] = system: soft rot in wild cabbages; assay: Field test for controlling soft rot in wild cabbages; format: in vivo, wild cabbage; settings: 7 days after the last application
Description: (§1) In October 2019, tests were carried out in fields of Chinese cabbage, wild cabbage and lettuce in Tai'an, Shandong. The doses of the compounds 152 and 282 of the present disclosure (both prepared as dispersible granules with a mass fraction of 10%) used were 16.87 ga.i./hm^2 and 33.75 ga.i./hm^2, and the control agents used were 3% (by weight) wettable powder of zhongshengmycin and 33.5% (by weight) aqueous suspension of oxine-copper (both were commercially available). The dose of zhongshengmycin was 67.5 ga.i./hm^2, and the dose of oxine-copper was 337.5 ga.i./hm^2. Test and control agents were arranged in randomized blocks. Plot area was 15 m^2. Treatment was repeated 3 times. The route of application was spraying on stem and leaves. The application was performed 2 times in total at an interval of 7 days, and the efficacy investigation was performed 7 days after the last application. During the investigation, sampling was carried out at 5 points in each plot. Disease conditions of soft rot in Chinese cabbages, soft rot in lettuces and soft rot in wild cabbages were recorded according to the relevant technical standard of Pesticide Guidelines for the Field Efficacy Trials GB/T17980.114-2004, and the incidence rate of plants was calculated to further evaluate the control effect.

[2] = system: soft rot in lettuces; assay: Field test for controlling soft rot in lettuces; format: in vivo, lettuce; settings: 7 days after the last application
Description: as §1

[3] = system: pathogenic bacteria causing stem rot in sweet potatoes; assay: In vitro bactericidal activity, stem rot in sweet potatoes; format: cell-based, dikia
[4] = system: pathogenic bacteria causing black shank in potatoes; assay: In vitro bactericidal activity, black shank in potatoes; format: cell-based
[5] = system: pathogenic bacteria causing bacterial blight in rice; assay: whole plant or invertebrate; format: cell-based, xanthomonas; settings: in vitro
[6] = system: pathogenic bacteria causing bacterial wilt in tobacco; assay: whole plant or invertebrate; format: cell-based, ralstonia; settings: in vitro
[7] = system: pathogenic bacteria causing fruit blotch in watermelons; assay: In vitro bactericidal activity, fruit blotch in watermelons; format: cell-based, acidovorax
[8] = system: pathogenic bacteria causing bacterial angular leaf spot in cucumbers; assay: In vitro bactericidal activity, bacterial angular leaf spot in cucumbers; format: cell-based, pseudomonas
[9] = system: pathogenic bacteria causing bacterial wilt in cassava; assay: organism not typed; format: cell-based; settings: in vitro
[10] = system: pathogenic bacteria causing fire blight in pears; assay: In vitro bactericidal activity, fire blight in pears; format: cell-based, erwinia
[11] = system: stem rot in sweet potatoes
[12] = system: pathogenic bacteria causing black rot in Chinese cabbages; assay: In vitro bactericidal activity, black rot in Chinese cabbages; format: cell-based, xanthomonas
[13] = system: soft rot in Chinese cabbages
[14] = system: black shank in potatoes; assay: Living crops in vivo protective activity, potatoes (root irrigation)
Description: Root irrigation was carried out on the potatoes for tests according to the designed concentration of the agents. The dosage for each plant was 200 mL and was kept consistent (also for the control). The black shank bacteria were inoculated on the second day after the application. The results were investigated according to the disease condition.

[15] = system: fruit blotch in watermelons
[16] = system: bacterial wilt in tobacco; settings: seed soaking
[17] = system: soft rot in Chinese cabbages; assay: Field test for controlling soft rot in Chinese cabbages; format: in vivo, Chinese cabbage; settings: 7 days after the last application
Description: as §1

[18] = dose 337.5 g a.i./hm^2, 2 sprays
[19] = dose 67.5 g a.i./hm^2, 2 sprays

Compound | inhibitory rate ([3]; dosage 1 ppm) | inhibitory rate ([3]; dosage 5 ppm) | inhibitory rate ([4]; dosage 1 ppm) | inhibitory rate ([4]; dosage 5 ppm) | inhibitory rate ([5]; dosage 1 ppm) | inhibitory rate ([5]; dosage 5 ppm) | inhibitory rate ([6]; dosage 1 ppm) | inhibitory rate ([6]; dosage 5 ppm) | inhibitory rate ([7]; dosage 1 ppm) | inhibitory rate ([7]; dosage 5 ppm) | inhibitory rate ([8]; dosage 1 ppm) | inhibitory rate ([8]; dosage 5 ppm) | inhibitory rate ([9]; dosage 1 ppm) | inhibitory rate ([9]; dosage 5 ppm) | inhibitory rate ([10]; dosage 1 ppm) | inhibitory rate ([10]; dosage 5 ppm) | inhibitory rate ([12]; dosage 1 ppm) | inhibitory rate ([12]; dosage 5 ppm) | efficacy against black shank in potatoes ([14]; dosage 5 ppm) | efficacy against black shank in potatoes ([14]; dosage 10 ppm) | other results
[Cu+2].[O-]c1cccc2cccnc12.[O-]c1cccc2cccnc12 [oxine-copper, reference compound] | 2% | 7% | 0% | 3% | 9% | 16% | 0% | 5% | 0% | 3% | 0% | 2% | 7% | 15% | 0% | 3% | 0% | 5% | 11% | 22% | Control effect (%) [1, 18]: 11%; Control effect (%) [2, 18]: 9%; efficacy against stem rot in sweet potatoes ([11]; in vivo): 20% and 13%; efficacy against soft rot in Chinese cabbages ([13]; in vivo): 16% and 6%; efficacy against fruit blotch in watermelons ([15]; in vivo): 22% and 15%; efficacy against bacterial wilt in tobacco ([16]; dosage 5 ppm): 5%; efficacy against bacterial wilt in tobacco ([16]; dosage 10 ppm): 11%; Control effect (%) [17, 18]: 13%
zhongshengmycin [reference compound] | 25% | 46% | 38% | 55% | 30% | 48% | 28% | 51% | 29% | 52% | 21% | 48% | 32% | 51% | 23% | 43% | 19% | 46% | 17% | 25% | Control effect (%) [1, 19]: 69%; Control effect (%) [2, 19]: 65%; efficacy against stem rot in sweet potatoes ([11]; dosage 5 ppm, seed soaking): 23%; efficacy against stem rot in sweet potatoes ([11]; dosage 10 ppm, seed soaking): 38%; efficacy against soft rot in Chinese cabbages ([13]; dosage 5 ppm, sprayed cut leaves, 48 h incubation): 23%; efficacy against soft rot in Chinese cabbages ([13]; dosage 10 ppm, sprayed cut leaves, 48 h incubation): 39%; efficacy against fruit blotch in watermelons ([15]; dosage 5 ppm, seed soaking): 19%; efficacy against fruit blotch in watermelons ([15]; dosage 10 ppm, seed soaking): 33%; efficacy against bacterial wilt in tobacco ([16]; dosage 5 ppm): 24%; efficacy against bacterial wilt in tobacco ([16]; dosage 10 ppm): 35%; Control effect (%) [17, 19]: 72%
